The source of these data is patent EP0672658B1, “Antithrombotic agents” (priority 1994, dated 1995).

Counter-ions that a name gives are not always drawn. A value given as a limit tells only on which side of the number the result lay.

The first assay addresses Human Thrombin (Homo sapiens, UniProt P00734). Kind of assay: biochemical. The following applies: read-out: Kass Human Thrombin (converted).
In the case of `CCS(=O)(=O)N[C@H](Cc1ccccc1)C(=O)N1CCC[C@H]1C(=O)NCCc1cccc(NC(=N)N)c1` [Example 37, EtSO2-D-Phe-Pro-m-NHCH2CH2C6H4NHC(NH)NH2·HCl], the Kd was 50000 nM.
`N=C(N)N1CC=C(CNC(=O)[C@@H]2CCCN2C(=O)[C@@H](CC2CCCCC2)NCC(=O)O)CC1` [Example 70, HO2CCH2-D-Cha-Pro-4-NHCH2-1-amidino-3,4-dehydro-piperidine·HCl]: the Kd is 2.33 nM.
Consider `Nc1ccc(CCNC(=O)[C@@H]2CCCN2C(=O)[C@@H](CC2CCCCC2)NCC(=O)O)cn1` [Example 75, HO2CCH2-D-Cha-Pro-5-NHCH2CH2-2-aminopyridine·HCl], for which the Kd was 2220 nM.
With `Nc1ccc(CCNC(=O)[C@@H]2CCCN2C(=O)[C@@H](CC2CCCCC2)NCC(=O)O)cc1` [Example 63, HO2CCH2-D-Cha-Pro-4-NHCH2CH2C6H4NH2·HCl], the Kd was 3230 nM.
With `N=C(N)C1=CNC(CNC(=O)[C@@H]2CCCN2C(=O)[C@@H](CC2CCCCC2)NCC(=O)O)CC1` (stereo partly drawn) [Example 68, HO2CCH2-D-Cha-Pro-2-NHCH2-5-amidino-5,6-dehydro-piperidine·HCl], the Kd was 1.67 nM.
With `CCS(=O)(=O)N[C@H](CC1CCCCC1)C(=O)N1CCC[C@H]1C(=O)NCc1ccc(N)cc1F` [Example 82, EtSO2-D-Cha-Pro-4-NHCH2-3-F-C6H3NH2·HCl], the Kd was 200 nM.
As to `Nc1ccc(CNC(=O)[C@@H]2CCCN2C(=O)[C@@H](CC2CCCCC2)NCC(=O)O)cn1` [Example 74, HO2CCH2-D-Cha-Pro-5-NHCH2-2-aminopyridine·HCl], the Kd was 34.5 nM.
For the compound `Nc1ccc(CNC(=O)[C@@H]2CCCN2C(=O)[C@@H](CC2CCCCC2)NCC(=O)O)cc1F` [Example 77, HO2CCH2-D-Cha-Pro-4-NHCH2-2-F-aniline·HCl], the Kd is 90.9 nM.

The target in a further assay is T1, Trypsin (Bos taurus, UniProt P00760).
T1 sequence (P00760 24-246): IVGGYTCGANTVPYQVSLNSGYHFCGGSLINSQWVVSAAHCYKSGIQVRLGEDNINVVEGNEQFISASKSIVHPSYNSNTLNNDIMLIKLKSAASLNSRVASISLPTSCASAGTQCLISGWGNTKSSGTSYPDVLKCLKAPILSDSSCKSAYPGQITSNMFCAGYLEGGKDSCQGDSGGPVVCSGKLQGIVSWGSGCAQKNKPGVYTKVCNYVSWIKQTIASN
Kind of assay: biochemical. Set-up: species or system Bovine. The following applies: read-out: Kass Trypsin (converted). As to the method:
By substantially following the procedures described above for human thrombin, and using other human blood coagulation system serine proteases and proteases of the fibrinolytic system with the appropriate chromogenic substrates, identified below, selectivity of the compounds of the present invention with respect to the coagulation factor serine proteases and with respect to the fibrinolytic system serine proteases are evaluated as well as their substantial lack of interference with serine proteases of the fibrinolytic system. Thrombin inhibitors preferably should spare fibrinolysis induced by urokinase, tissue plasminogen activator (t-PA) and streptokinase. This would be important to the therapeutic use of such agents as an adjunct to streptokinase, t-PA or urokinase thrombolytic therapy and to the use of such agents as an endogenous fibrinolysis-sparing (with respect to t-PA and urokinase) antithrombotic agent. In addition to the lack of interference with the amidase activity of the fibrinolytic proteases, such fibrinolytic system sparing can be studied by the use of human plasma clots and their lysis by the respective fibrinolytic plasminogen activators.
Human factors X, Xa, IXa, XIa, and XIIa are purchased from Enzyme Research Laboratories, South Bend, Indiana; human urokinase from Leo Pharmaceuticals, Denmark; and recombinant activated Protein C (aPC) is prepared at Eli Lilly and Co. substantially according to U.S. Patent 4,981,952. Chromogenic substrates: N-Benzoyl-Ile-Glu-Gly-Arg-p-nitroanilide (for factor Xa); N-Cbz-D-Arg-Gly-Arg-p-nitroanilide (for factor IXa assay as the factor Xa substrate); Pyroglutamyl-Pro-Arg-p-nitroanilide (for Factor XIa and for aPC); H-D-Pro-Phe-Arg-p-nitroanilide (for factor XIIa); and Pyroglutamyl-Gly-Arg-p-nitroanilide (for urokinase); are purchased from KabiVitrum, Stockholm, Sweden, or from Midwest Biotech, Fishers, Indiana. Bovine trypsin is purchased from Worthington Biochemicals, Freehold, New Jersey, and human plasma kallikrein from Kabi Vitrum, Stockholm, Sweden. Chromogenic substrate H-D-Pro-Phe-Arg-p-nitroanilide for plasma kallikrein is purchased from Kabi Vitrum, Stockholm, Sweden. N-Benzoyl-Phe-Val-Arg-p-nitroanilide, the substrate for human thrombin and for trypsin, is synthesized according to procedures described above for the compounds of the present invention, using known methods of peptide coupling from commercially available reactants or purchased from Midwest Biotech, Fishers, Indiana.
`N=C(N)c1ccc(CNC(=O)[C@@H]2CCCN2C(=O)[C@@H](CC2CCCCC2)NCC(=O)O)s1` [Example 65]: the Kd is 1.75 nM.
In the case of `CCS(=O)(=O)N[C@H](Cc1ccccc1)C(=O)N1CCC[C@H]1C(=O)NCCc1cccc(NC(=N)N)c1` [Example 37, EtSO2-D-Phe-Pro-m-NHCH2CH2C6H4NHC(NH)NH2·HCl], the Kd was greater than 111000 nM.
In the case of `N=C(N)N1CC=C(CNC(=O)[C@@H]2CCCN2C(=O)[C@@H](CC2CCCCC2)NCC(=O)O)CC1` [Example 70, HO2CCH2-D-Cha-Pro-4-NHCH2-1-amidino-3,4-dehydro-piperidine·HCl], the Kd is 102 nM.

A further assay concerns human or animal plasma. The assay can be described thus: Anticoagulation determination in plasma: thrombin time (TT). The class given is biochemical. The note with it: concentration doubling thrombin time. As to the method:
(§1) Dog plasma and rat plasma is obtained from conscious mixed-breed hounds (either sex, Hazelton-LRE, Kalamazoo, Michigan, U.S.A.) or from anesthetized male Sprague-Dawley rats (Harlan Sprague-Dawley, Inc., Indianapolis, Indiana, U.S.A.) by venipuncture into 3.8 percent citrate. Fibrinogen is prepared from in-date ACD human blood as the fraction I-2 according to previous procedures and specifications. Smith, Biochem. J., 185, 1-11 (1980); and Smith, et al., Biochemistry, 11, 2958-2967 (1972). Human fibrinogen is also purchased as 98 percent pure/plasmin free from American Diagnostica, Greenwich, Connecticut. Coagulation reagents ACTIN, Thromboplastin, and Human plasma are from Baxter Healthcare Corp., Dade Division, Miami, Florida. Bovine thrombin from Parke-Davis (Ann Detroit, Michigan) is used for coagulation assays in plasma.
(§2) Coagulation assay procedures are as previously described. Smith, et al., Thrombosis Research, 50, 163-174 (1988). A CoAScreener coagulation instrument (American LABor, Inc.) is used for all coagulation assay measurements. The prothrombin time (PT) is measured by adding 0.05 mL saline and 0.05 mL Thromboplastin-C reagent to 0.05 mL test plasma. The activated partial thromboplastin time (APTT) is measured by incubation of 0.05 mL test plasma with 0.05 mL Actin reagent for 120 seconds followed by 0.05 mL CaCl2 (0.02 M). The thrombin time (TT) is measured by adding 0.05 mL saline and 0.05 mL thrombin (10 NIH units/mL) to 0.05 mL test plasma. The compounds of Formula I are added to human or animal plasma over a wide range of concentrations to determine prolongation effects on the APTT, PT, and TT assays. Linear extrapolations are performed to estimate the concentrations required to double the clotting time for each assay.
On to `N=C(N)c1ccc(CNC(=O)[C@@H]2CCCN2C(=O)[C@@H](CC2CCCCC2)NCC(=O)O)s1` [Example 65], for which the “Human Plasma Anticoagulation 2x Clotting time (ng/mL) TT” value is listed as 1 ng/mL.
Regarding `CCS(=O)(=O)N[C@H](Cc1ccccc1)C(=O)N1CCC[C@H]1C(=O)NCCc1cccc(NC(=N)N)c1` [Example 37, EtSO2-D-Phe-Pro-m-NHCH2CH2C6H4NHC(NH)NH2·HCl], the “Human Plasma Anticoagulation 2x Clotting time (ng/mL) TT” value is reported as >9,000 ng/mL.
As to `N=C(N)N1CC=C(CNC(=O)[C@@H]2CCCN2C(=O)[C@@H](CC2CCCCC2)NCC(=O)O)CC1` [Example 70, HO2CCH2-D-Cha-Pro-4-NHCH2-1-amidino-3,4-dehydro-piperidine·HCl], the “Human Plasma Anticoagulation 2x Clotting time (ng/mL) TT” value came to 2 ng/mL.
For `Nc1ccc(CCNC(=O)[C@@H]2CCCN2C(=O)[C@@H](CC2CCCCC2)NCC(=O)O)cc1` [Example 63, HO2CCH2-D-Cha-Pro-4-NHCH2CH2C6H4NH2·HCl], the “Human Plasma Anticoagulation 2x Clotting time (ng/mL) TT” value is listed as 680 ng/mL.
`N=C(N)C1=CNC(CNC(=O)[C@@H]2CCCN2C(=O)[C@@H](CC2CCCCC2)NCC(=O)O)CC1` (stereo partly drawn) [Example 68, HO2CCH2-D-Cha-Pro-2-NHCH2-5-amidino-5,6-dehydro-piperidine·HCl]: the “Human Plasma Anticoagulation 2x Clotting time (ng/mL) TT” value is 4. ng/mL.
For the compound `CCS(=O)(=O)N[C@H](CC1CCCCC1)C(=O)N1CCC[C@H]1C(=O)NCc1ccc(N)cc1F` [Example 82, EtSO2-D-Cha-Pro-4-NHCH2-3-F-C6H3NH2·HCl], the “Human Plasma Anticoagulation 2x Clotting time (ng/mL) TT” value is recorded as 130 ng/mL.
Turning to `Nc1ccc(CNC(=O)[C@@H]2CCCN2C(=O)[C@@H](CC2CCCCC2)NCC(=O)O)cn1` [Example 74, HO2CCH2-D-Cha-Pro-5-NHCH2-2-aminopyridine·HCl], the “Human Plasma Anticoagulation 2x Clotting time (ng/mL) TT” value is 20 ng/mL.
As to `Nc1ccc(CNC(=O)[C@@H]2CCCN2C(=O)[C@@H](CC2CCCCC2)NCC(=O)O)cc1F` [Example 77, HO2CCH2-D-Cha-Pro-4-NHCH2-2-F-aniline·HCl], the “Human Plasma Anticoagulation 2x Clotting time (ng/mL) TT” value is on record as 53 ng/mL.

In a further assay the test system is human or animal plasma. The assay can be described thus: Anticoagulation determination in plasma: activated partial thromboplastin time (APTT). It is filed as biochemical. The following applies: concentration doubling activated partial thromboplastin time. As to the method: as §1, §2
For the compound `CCS(=O)(=O)N[C@H](Cc1ccccc1)C(=O)N1CCC[C@H]1C(=O)NCCc1cccc(NC(=N)N)c1` [Example 37, EtSO2-D-Phe-Pro-m-NHCH2CH2C6H4NHC(NH)NH2·HCl], the “Human Plasma Anticoagulation 2x Clotting time (ng/mL) APTT” value is on record as >9,000 ng/mL.
For `N=C(N)N1CC=C(CNC(=O)[C@@H]2CCCN2C(=O)[C@@H](CC2CCCCC2)NCC(=O)O)CC1` [Example 70, HO2CCH2-D-Cha-Pro-4-NHCH2-1-amidino-3,4-dehydro-piperidine·HCl], the “Human Plasma Anticoagulation 2x Clotting time (ng/mL) APTT” value is 160 ng/mL.
On to `N=C(N)C1=CNC(CNC(=O)[C@@H]2CCCN2C(=O)[C@@H](CC2CCCCC2)NCC(=O)O)CC1` (stereo partly drawn) [Example 68, HO2CCH2-D-Cha-Pro-2-NHCH2-5-amidino-5,6-dehydro-piperidine·HCl], for which the “Human Plasma Anticoagulation 2x Clotting time (ng/mL) APTT” value came out at 49 ng/mL.
On to `CCS(=O)(=O)N[C@H](CC1CCCCC1)C(=O)N1CCC[C@H]1C(=O)NCc1ccc(N)cc1F` [Example 82, EtSO2-D-Cha-Pro-4-NHCH2-3-F-C6H3NH2·HCl], for which the “Human Plasma Anticoagulation 2x Clotting time (ng/mL) APTT” value is 3,800 ng/mL.
`Nc1ccc(CNC(=O)[C@@H]2CCCN2C(=O)[C@@H](CC2CCCCC2)NCC(=O)O)cn1` [Example 74, HO2CCH2-D-Cha-Pro-5-NHCH2-2-aminopyridine·HCl]: the “Human Plasma Anticoagulation 2x Clotting time (ng/mL) APTT” value is given as 420 ng/mL.
In the case of `Nc1ccc(CNC(=O)[C@@H]2CCCN2C(=O)[C@@H](CC2CCCCC2)NCC(=O)O)cc1F` [Example 77, HO2CCH2-D-Cha-Pro-4-NHCH2-2-F-aniline·HCl], the “Human Plasma Anticoagulation 2x Clotting time (ng/mL) APTT” value was 1,600 ng/mL.

In a further assay the test system is human or animal plasma. The assay can be described thus: Anticoagulation determination in plasma: prothrombin time (PT). The class given is biochemical. The note with it: concentration doubling prothrombin time. As to the method: as §1, §2
In the case of `CCS(=O)(=O)N[C@H](Cc1ccccc1)C(=O)N1CCC[C@H]1C(=O)NCCc1cccc(NC(=N)N)c1` [Example 37, EtSO2-D-Phe-Pro-m-NHCH2CH2C6H4NHC(NH)NH2·HCl], the “Human Plasma Anticoagulation 2x Clotting time (ng/mL) PT” value was >9,000 ng/mL.
In the case of `N=C(N)N1CC=C(CNC(=O)[C@@H]2CCCN2C(=O)[C@@H](CC2CCCCC2)NCC(=O)O)CC1` [Example 70, HO2CCH2-D-Cha-Pro-4-NHCH2-1-amidino-3,4-dehydro-piperidine·HCl], the “Human Plasma Anticoagulation 2x Clotting time (ng/mL) PT” value turned out to be 180 ng/mL.
With `N=C(N)C1=CNC(CNC(=O)[C@@H]2CCCN2C(=O)[C@@H](CC2CCCCC2)NCC(=O)O)CC1` (stereo partly drawn) [Example 68, HO2CCH2-D-Cha-Pro-2-NHCH2-5-amidino-5,6-dehydro-piperidine·HCl], the “Human Plasma Anticoagulation 2x Clotting time (ng/mL) PT” value is given as 190 ng/mL.
As to `CCS(=O)(=O)N[C@H](CC1CCCCC1)C(=O)N1CCC[C@H]1C(=O)NCc1ccc(N)cc1F` [Example 82, EtSO2-D-Cha-Pro-4-NHCH2-3-F-C6H3NH2·HCl], the “Human Plasma Anticoagulation 2x Clotting time (ng/mL) PT” value was 3,000 ng/mL.
As to `Nc1ccc(CNC(=O)[C@@H]2CCCN2C(=O)[C@@H](CC2CCCCC2)NCC(=O)O)cn1` [Example 74, HO2CCH2-D-Cha-Pro-5-NHCH2-2-aminopyridine·HCl], the “Human Plasma Anticoagulation 2x Clotting time (ng/mL) PT” value amounted to 350 ng/mL.
As for `Nc1ccc(CNC(=O)[C@@H]2CCCN2C(=O)[C@@H](CC2CCCCC2)NCC(=O)O)cc1F` [Example 77, HO2CCH2-D-Cha-Pro-4-NHCH2-2-F-aniline·HCl], the “Human Plasma Anticoagulation 2x Clotting time (ng/mL) PT” value worked out at 890 ng/mL.
